Where a name gives a salt, the structure may show the parent alone.
Experiments:
[1] = tested on: DOPAC (3,4-dihydroxyphenylacetic acid) in the rat striatum; test: Increase of DOPAC in the rat striatum after systemic administration (in vivo neurochemistry); settings: sc, systemic administration (s.c.), curve fitting, 95% range printed in the row below each value, read-out: ED50 DOPAC* (estimated ED50 on increase of DOPAC in the rat striatum)
Excerpt: After the behavioural activity sessions, the rats are decapitated and their brains rapidly taken out and put on an ice-cold petri-dish. The limbic forebrain, the striatum, the frontal cortex and the remaining hemispheral parts of each rat are dissected and frozen. Each brain part is subsequently analyzed with respect to its content of monoamines and their metabolites.
The monoamine transmitter substances (NA (noradrenaline), DA (dopamine), 5-HT (serotonin)) as well as their amine (NM (normethanephrine), 3-MT (3-methoxytyramine)) and acid (DOPAC (3,4-dihydroxyphenylacetic acid), 5-HIAA (5-hydroxyindoleacetic acid), HVA (homovanillic acid)) metabolites are quantified in brain tissue homogenates by HPLC separations and electrochemical detection
The analytical method is based on two chromatographic separations dedicated for amines or acids. Two chromatographic systems share a common auto injector with a 10-port valve and two sample loops for simultaneous injection on the two systems. Both systems are equipped with a reverse phase column (Luna C18(2), dp 3 μm, 50*2 mm i.d., Phenomenex) and electrochemical detection is accomplished at two potentials on glassy carbon electrodes (MF-1000, Bioanalytical Systems, Inc.). The column effluent is passed via a T-connection to the detection cell or to a waste outlet. This is accomplished by two solenoid valves, which block either the waste or detector outlet. By preventing the chromatographic front from reaching the detector, better detection conditions are achieved. The aqueous mobile phase (0.4 ml/min) for the acid system contains citric acid 14 mM, sodium citrate 10 mM, MeOH 15% (v/v) and EDTA 0.1 mM. Detection potentials relative to Ag/AgCl reference are 0.45 and 0.60V. The aqueous ion pairing mobile phase (0.5 ml/min) for the amine system contains citric acid 5 mM, sodium citrate 10 mM, MeOH 9% (v/v), MeCN 10.5% v/v), decane sulfonic acid 0.45 mM, and EDTA 0.1 mM. Detection potentials relative to Ag/AgCl reference are 0.45 and 0.65V.
ED50 values for the increase of DOPAC in striatum are calculated by curve fitting.

drug-naive rats = test: Locomotor activity in drug-naive rats (in vivo behaviour); parameters: species or system rat; settings: recorded for 60 minutes immediately after drug administration
Excerpt: Photobeam sensors are spaced 2.5 cm apart.

Row | SMILES | melting point | ED50 [1] | Locomotor activity (counts/60 min ± SEM) (drug-naive rats; 3.7 μmol/kg) | Locomotor activity (counts/60 min ± SEM) (drug-naive rats; 11 μmol/kg) | Locomotor activity (counts/60 min ± SEM) (drug-naive rats; 33 μmol/kg)
1 | CCCNCC1COc2ccc(OS(=O)(=O)C(F)(F)F)cc2O1 (centres unmarked) (as salt: fumaric acid salt) [Example 6, 3-[(PROPYLAMINO)METHYL]-2,3-DIHYDRO-1,4-BENZODIOXIN-6-YL TRIFLUOROMETHANESULFONATE] | 163 °C | – | – | – | –
2 | CCCNCC1COc2cc(F)c(F)cc2O1 (centres unmarked) (as salt: hydrobromic acid salt) [Example 2, N-[(6,7-DIFLUORO-2,3-DIHYDRO-1,4-BENZODIOXIN-2-YL)METHYL]PROPAN-1-AMINE] | 262 °C | – | – | – | –
3 | CCCNC[C@H]1COc2ccc(Br)cc2O1 (as salt: hydrochloric acid salt) [Example 1, N-{[(2S)-7-BROMO-2,3-DIHYDRO-1,4-BENZODIOXIN-2-YL]METHYL}PROPAN-1-AMINE] | 194 °C | – | – | – | –
4 | CCCNCC1COc2ccc(F)cc2O1 (centres unmarked) (as salt: hydrochloric acid salt) [Example 3, N-[(7-FLUORO-2,3-DIHYDRO-1,4-BENZODIOXIN-2-YL)METHYL]PROPAN-1-AMINE] | 187 °C | – | – | – | –
5 | CCCNCC1COc2ccc(Cl)cc2O1 (centres unmarked) (as salt: hydrochloric acid salt) [Example 4, N-[(7-CHLORO-2,3-DIHYDRO-1,4-BENZODIOXIN-2-YL)METHYL]PROPAN-1-AMINE] | 191 °C | – | – | – | –
6 | CCCNCC1COc2ccc(F)c(F)c2O1 (centres unmarked) (as salt: hydrochloric acid salt) [Example 7, N-[(7,8-DIFLUORO-2,3-DIHYDRO-1,4-BENZODIOXIN-2-YL)METHYL]PROPAN-1-AMINE] | 184 °C | – | – | – | –
7 | CCCNCC1COc2c(F)cc(F)cc2O1 (centres unmarked) (as salt: hydrochloric acid salt) [Example 8, N-[(5,7-DIFLUORO-2,3-DIHYDRO-1,4-BENZODIOXIN-2-YL)METHYL]PROPAN-1-AMINE] | 157 °C | – | – | – | –
8 | Fc1ccc2c(c1)O[C@@H](CN1CCCC1)CO2 (as salt: hydrochloric acid salt) [Example 9, 1-{[(2S)-7-FLUORO-2,3-DIHYDRO-1,4-BENZODIOXIN-2-YL]METHYL}PYRROLIDINE] | 215 °C | – | – | – | –
9 | CCCNC[C@H]1COc2ccc(C(F)(F)F)cc2O1 (as salt: hydrochloric acid salt) [Example 58, N-{[(2S)-7-(TRIFLUOROMETHYL)-2,3-DIHYDRO-1,4-BENZODIOXIN-2-YL]METHYL}PROPAN-1-AMINE] | 166 °C | – | – | – | –
10 | CCCNC[C@H]1COc2ccc(Br)cc2O1 [Example 1, N-{[(2S)-7-BROMO-2,3-DIHYDRO-1,4-BENZODIOXIN-2-YL]METHYL}PROPAN-1-AMINE] | – | 3.4 µmol/kg | 6714 ± 601 counts/60 min | 5111 ± 620 counts/60 min | 1326 ± 131 counts/60 min
11 | CCCNCC1COc2ccc(OS(=O)(=O)C(F)(F)F)cc2O1 (centres unmarked) [Example 6, 3-[(PROPYLAMINO)METHYL]-2,3-DIHYDRO-1,4-BENZODIOXIN-6-YL TRIFLUOROMETHANESULFONATE] | – | 12 µmol/kg | 9495 ± 2036 counts/60 min | 10705 ± 1903 counts/60 min | 8064 ± 707 counts/60 min
12 | CCCNCC1COc2ccc(F)c(F)c2O1 (centres unmarked) [Example 7, N-[(7,8-DIFLUORO-2,3-DIHYDRO-1,4-BENZODIOXIN-2-YL)METHYL]PROPAN-1-AMINE] | – | 3.1 µmol/kg | 7932 ± 2067 counts/60 min | 6884 ± 400 counts/60 min | 4408 ± 212 counts/60 min
13 | CCCNCC1COc2c(F)cc(F)cc2O1 (centres unmarked) [Example 8, N-[(5,7-DIFLUORO-2,3-DIHYDRO-1,4-BENZODIOXIN-2-YL)METHYL]PROPAN-1-AMINE] | – | 14 µmol/kg | 9266 ± 2706 counts/60 min | 8320 ± 2405 counts/60 min | 5457 ± 536 counts/60 min
14 | Fc1ccc2c(c1)O[C@@H](CN1CCCC1)CO2 [Example 9, 1-{[(2S)-7-FLUORO-2,3-DIHYDRO-1,4-BENZODIOXIN-2-YL]METHYL}PYRROLIDINE] | – | – | 5419 ± 1414 counts/60 min | 2769 ± 647 counts/60 min | 1944 ± 482 counts/60 min
15 | CCCNC[C@H]1COc2ccc(C(F)(F)F)cc2O1 [Example 58, N-{[(2S)-7-(TRIFLUOROMETHYL)-2,3-DIHYDRO-1,4-BENZODIOXIN-2-YL]METHYL}PROPAN-1-AMINE] | – | < 3.7 µmol/kg | – | – | –
